Results on 35 compounds are retold here after patent publication US7291621B2, “Substituted biaryl amides C5a receptor modulators” (Neurogen Corporation, priority 2002, dated 2007).

pKi: −log10 of the molar value.

The assay has as its target T1, C5a receptor (Homo sapiens, UniProt P21730).
T1 construct: endogenous in cells; host or cells: U937 cells differentiated with 1 mM dibutyryl cAMP
T1 sequence (P21730 1-350): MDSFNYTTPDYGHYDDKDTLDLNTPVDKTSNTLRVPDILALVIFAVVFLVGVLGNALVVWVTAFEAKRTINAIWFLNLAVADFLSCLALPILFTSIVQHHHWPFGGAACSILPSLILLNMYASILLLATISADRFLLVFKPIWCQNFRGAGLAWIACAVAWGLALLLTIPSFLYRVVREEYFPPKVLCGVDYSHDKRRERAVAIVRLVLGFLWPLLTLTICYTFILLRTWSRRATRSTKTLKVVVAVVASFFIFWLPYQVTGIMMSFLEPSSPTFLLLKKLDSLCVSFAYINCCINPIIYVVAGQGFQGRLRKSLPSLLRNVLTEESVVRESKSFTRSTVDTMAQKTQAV
The assay is described as follows: standard assay of C5a receptor mediated calcium mobilization. It is filed as cell-based. The conditions noted are these: Table I; asterisk = tested in C5a receptor mediated calcium mobilization assay; read-out: Ca2+ Mob. On the procedure:
U937 cells are grown in differentiation media (1 mM dibutyrl cAMP in RPMI 1640 medium containing 10% fetal bovine serum) for 48 hrs at 37° C. then reseeded onto 96-well plates suitable for use in a FLIPR™ Plate Reader (Molecular Devices Corp., Sunnyvale Calif.). Cells are grown an additional 24 hours (to 70-90% confluence) before the assay. The cells are then washed once with Krebs Ringer solution. FLUO-3 calcium sensitive dye (Molecular Probes, Inc. Eugene, Oreg.) is added to 10 μg/mL and incubated with the cells at room temperature for 1 to 2 hours. The 96 well plates are then washed to remove excess dye. Fluorescence responses, measured by excitation at 480 nm and emission at 530 nm, are monitored upon the addition of human C5a to the cells to a final concentration of 0.01-30.0 nM, using the FLIPR™ device (Molecular Devices).
The calcium mobilization assay described above may be readily adapted for identifying test compounds that have agonist or antagonist activity at the human C5a receptor.
For example, in order to identify antagonist compounds, differentiated U937 cells are washed and incubated with Fluo-3 dye as described above. One hour prior to measuring the fluorescence signal, a subset of the cells is incubated with 1 μM of at least one compound to be tested. The fluorescence response upon the subsequent addition of 0.3 nM (final concentration) human recombinant C5a is monitored using the FLIPR™ plate reader. Antagonist compounds elicit at least a 2-fold decrease in the fluorescence response relative to that measured in the presence of human C5a alone. Preferred antagonist compounds elicit at least a 5-fold, preferably at least a 10-fold, and more preferably at least a 20-fold decrease in the fluorescence response relative to that measured in the presence of human C5a alone.
(In general: A change in cytosolic calcium serves as a functional read-out for many receptors and channels.)
Turning to `Cc1ccccc1CN(C(=O)c1ccccc1-c1ccccc1)C1Cc2ccccc2C1` [compound 73, N-(indan-2-yl)-N-(2-methylbenzyl)-1,1′-biphenyl-2-carboxamide], the pKi was more than 6.00.

Take `Cc1cccc(CN(C(=O)c2ccccc2-c2ccccc2)C2Cc3ccccc3C2)c1` [compound 74, N-(indan-2-yl)-N-(3-methylbenzyl)-1,1′-biphenyl-2-carboxamide]: the pKi is more than 6.00. With `Cc1ccc(CN(C(=O)c2ccccc2-c2ccccc2)C2Cc3ccccc3C2)cc1` [compound 75, N-(indan-2-yl)-N-(4-methylbenzyl)-1,1′-biphenyl-2-carboxamide] the figure was more than 6.00. On to `O=C(c1ccccc1-c1ccccc1)N(Cc1ccc(F)cc1)C1Cc2ccccc2C1` [compound 76, N-(indan-2-yl)-N-(4-fluorobenzyl)-1,1′-biphenyl-2-carboxamide], for which the pKi was more than 6.00. Next, `O=C(c1ccccc1-c1ccccc1)N(Cc1cccc(F)c1)C1Cc2ccccc2C1` [compound 77, N-(indan-2-yl)-N-(3-fluorobenzyl)-1,1′-biphenyl-′-carboxamide]: more than 6.00; `O=C(c1ccccc1-c1ccccc1)N(Cc1ccccc1F)C1Cc2ccccc2C1` [compound 78, N-(indan-2-yl)-N-(2-fluorobenzyl)-1,1′-biphenyl-2-carboxamide]: more than 6.00. Next, `O=C(c1ccccc1-c1ccccc1)N(Cc1ccc2c(c1)OCO2)C1Cc2ccccc2C1` [compound 79, N-(1,3-benzodioxol-5-ylmethyl)-N-(indan-2-yl)-1,1′-biphenyl-2-carboxamide]: more than 6.00. With `O=C(c1ccccc1-c1ccccc1)N(Cc1ccc(F)c(F)c1)C1Cc2ccccc2C1` [compound 80, N-(3,4-difluorobenzyl)-N-(indan-2-yl)-1,1′-biphenyl-2-carboxamide] the figure was more than 6.00. For the compound `COc1ccccc1CN(C(=O)c1ccccc1-c1ccsc1)C1Cc2ccccc2C1` [compound 81, N-(indan-2-yl)-N-(2-methoxybenzyl)-2-thien-3-ylbenzamide], the pKi is more than 6.00.

For the compound `COc1ccccc1CN(C(=O)c1ccccc1-c1ccccc1F)C1Cc2ccccc2C1` [compound 82, N-(indan-2-yl)-2′-fluoro-N-(2-methoxybenzyl)-1,1′-biphenyl-2-carboxamide], the pKi was more than 6.00. For `COc1ccc(CN(C(=O)c2ccccc2-c2ccsc2)C2Cc3ccccc3C2)cc1` [compound 83, N-(indan-2-yl)-N-(4-methoxybenzyl)-2-thien-3-ylbenzamide], the pKi is more than 6.00. With `COc1cc(CN(C(=O)c2ccccc2-c2ccsc2)C2Cc3ccccc3C2)cc(OC)c1` [compound 84, N-(indan-2-yl)-N-(3,5-dimethoxybenzyl)-2-thien-3-ylbenzamide] the figure was more than 6.00; with `O=C(c1ccccc1-c1ccsc1)N(Cc1cccc(-c2ccsc2)c1)C1Cc2ccccc2C1` [compound 85, N-(indan-2-yl)-2-thien-3-yl-N-(3-thien-3-ylbenzyl)benzamide], more than 6.00; with `O=C(c1ccccc1-c1ccsc1)N(Cc1ccc2ccccc2c1)C1Cc2ccccc2C1` [compound 86, N-(indan-2-yl)-N-(2-naphthylmethyl)-2-thien-3-ylbenzamide], more than 6.00.

For the compound `O=C(c1ccccc1-c1ccccc1F)N(Cc1ccccc1)Cc1ccccc1` [compound 87, N,N-dibenzyl-2′-fluoro-1,1′-biphenyl-2-carboxamide], the pKi is more than 6.00. As for `Cc1ccc(CN(C(=O)c2ccccc2-c2ccc(C)cc2)C2Cc3ccccc3C2)cc1` [compound 88, N-(indan-2-yl)-4′-methyl-N-(4-methylbenzyl)-1,1′-biphenyl-2-carboxamide], the pKi was more than 6.00.

`COc1cccc(-c2ccccc2C(=O)N(Cc2ccc(C)cc2)C2Cc3ccccc3C2)c1` [compound 89, N-(indan-2-yl)-3′-methoxy-N-(4-methylbenzyl)-1,1′-biphenyl-2-carboxamide]: the pKi was more than 6.00.

As for `Cc1ccc(CN(C(=O)c2ccccc2-c2ccccc2F)C2Cc3ccccc3C2)cc1` [compound 90, N-(indan-2-yl)-2′-fluoro-N-(4-methylbenzyl)-1,1′-biphenyl-2-carboxamide], the pKi is more than 6.00. Next, `Cc1ccc(-c2ccccc2C(=O)N(Cc2ccc(F)cc2)C2Cc3ccccc3C2)cc1` [compound 91, N-(indan-2-yl)-N-(4-fluorobenzyl)-4′-methyl-1,1′-biphenyl-2-carboxamide]: more than 6.00; `COc1cccc(-c2ccccc2C(=O)N(Cc2ccc(F)cc2)C2Cc3ccccc3C2)c1` [compound 92, N-(indan-2-yl)-N-(4-fluorobenzyl)-3′-methoxy-1,1′-biphenyl-2-carboxamide]: more than 6.00; `O=C(c1ccccc1-c1ccccc1F)N(Cc1ccc(F)cc1)C1Cc2ccccc2C1` [compound 93, N-(indan-2-yl)-2′-fluoro-N-(4-fluorobenzyl)-1,1′-biphenyl-2-carboxamide]: more than 6.00.

`Cc1ccc(-c2ccccc2C(=O)N(Cc2ccccc2F)C2Cc3ccccc3C2)cc1` [compound 94, N-(indan-2-yl)-N-(2-fluorobenzyl)-4′-methyl-1,1′-biphenyl-2-carboxamide]: the pKi is more than 6.00. Next, `Cc1ccc(-c2ccccc2C(=O)N(Cc2cccc(F)c2)C2Cc3ccccc3C2)cc1` [compound 95, N-(indan-2-yl)-N-(3-fluorobenzyl)-4′-methyl-1,1′-biphenyl-2-carboxamide]: more than 6.00. Next, `O=C(c1ccccc1-c1ccccc1F)N(Cc1cccc(F)c1)C1Cc2ccccc2C1` [compound 96, N-(indan-2-yl)-2′-fluoro-N-(3-fluorobenzyl)-1,1′-biphenyl-′-carboxamide]: more than 6.00; `Cc1ccc(-c2ccccc2C(=O)N(Cc2cccc(C)c2)C2Cc3ccccc3C2)cc1` [compound 97, N-(indan-2-yl)-4′-methyl-N-(3-methylbenzyl)-1,1′-biphenyl-2-carboxamide]: more than 6.00. As for `COc1cccc(-c2ccccc2C(=O)N(Cc2cccc(C)c2)C2Cc3ccccc3C2)c1` [compound 98, N-(indan-2-yl)-3′-methoxy-N-(3-methylbenzyl)-1,1′-biphenyl-2-carboxamide], the pKi was more than 6.00. As to `Cc1cccc(CN(C(=O)c2ccccc2-c2ccccc2F)C2Cc3ccccc3C2)c1` [compound 99, N-(indan-2-yl)-2′-fluoro-N-(3-methylbenzyl)-1,1′-biphenyl-2-carboxamide], the pKi was more than 6.00.

For `Cc1ccc(-c2ccccc2C(=O)N(Cc2ccccc2C)C2Cc3ccccc3C2)cc1` [compound 100, N-(indan-2-yl)-4′-methyl-N-(2-methylbenzyl)-1,1′-biphenyl-2-carboxamide], the pKi was more than 6.00. With `COc1cccc(CN(C(=O)c2c(OC)cccc2-c2ccccc2)C2Cc3ccccc3C2)c1` [compound 101, N-(indan-2-yl)-3-methoxy-N-(3-methoxybenzyl)-1,1′-biphenyl-2-carboxamide] the figure was more than 6.00; with `COc1cccc(CN(C(=O)c2cc(OC)ccc2-c2ccc(C)s2)C2Cc3ccccc3C2)c1` [compound 102, N-(indan-2-yl)-5-methoxy-N-(3-methoxybenzyl)-2-(5-methylthien-2-yl)benzamide], more than 6.00; with `COc1cccc(CN(C(=O)c2cc(OC)ccc2-c2ccccc2)C2Cc3ccccc3C2)c1` [compound 103, N-(indan-2-yl)-4-methoxy-N-(3-methoxybenzyl)-1,1′-biphenyl-2-carboxamide], more than 6.00. With `COc1cccc(CN(C(=O)c2cc(OC)ccc2-c2ccsc2)C2Cc3ccccc3C2)c1` [compound 104, N-(indan-2-yl)-5-methoxy-N-(3-methoxybenzyl)-2-thien-3-ylbenzamide] the figure was more than 6.00. Next, `COc1ccc(-c2ccccc2)c(C(=O)N(Cc2ccccc2C)C2Cc3ccccc3C2)c1` [compound 105, N-(indan-2-yl)-4-methoxy-N-(2-methylbenzyl)-1,1′-biphenyl-2-carboxamide]: more than 6.00; `COc1ccc(-c2ccccc2)c(C(=O)N(Cc2cccc(C)c2)C2Cc3ccccc3C2)c1` [compound 106, N-(indan-2-yl)-4-methoxy-N-(3-methylbenzyl)-1,1′-biphenyl-2-carboxamide]: more than 6.00.

Take `COc1ccc(-c2ccccc2)c(C(=O)N(Cc2ccc(C)cc2)C2Cc3ccccc3C2)c1` [compound 107, N-(indan-2-yl)-4-methoxy-N-(4-methylbenzyl)-1,1′-biphenyl-2-carboxamide]: the pKi is more than 6.00.
